US20170057955A1, “Pyridopyrimidinone Compounds for Modulating the Catalytic Activity of Histone Lysine Demethylases (KDMs)” (Dong-A Socio Holdings Co., Ltd., priority 2015, published 2017)

Target: T1, Recombinant human JARID1B/KDM5B (Homo sapiens, UniProt Q9UGL1)
T1 construct: purchased Active Motif 31432; host or cells: Sf9 insect cells
Test: LANCE Ultra TR-FRET JARID1B (KDM5B) demethylase inhibition assay
Format: biochemical
Conditions: 0.1 uM of test-compounds, FLAG-JARID1B, 500 nM biotinylated H3K4me3 peptide substrate, 30 min at room temperature
From the text: FLAG-tagged JARID1B (also known as KDM5B) protein was screened against 49 compounds. For this compound screening, LANCE Ultra time-resolved fluorescence resonance energy transfer (TR-FRET) assay was employed using a europoium (Eu)-labeled antibody that can specifically recognize mono- or dimethylated peptides (H3K4me2/1) and ULight-streptavidin (ULight-SA), a small molecule fluorescent dye. When irradiated at 340 nm, the energy from the Eu donor is transferred to the ULight acceptor dye which, in turn, emits light primarily at 665 nm. The ratio between the intensity of primary emission at 665 nm and that of secondary emission at […] was used to quantify the level of lysine methylation. As JARID1B removes more methyl moieties from tri-methylated substrate peptides (H3K4me3), the ratio increases until the enzyme reaction is terminated. In case, therefore, the compounds disrupt the enzymatic activity completely, the ratio becomes equal to a background value.
Recombinant human JARID1B/KDM5B (accession number NP_006609) of molecular weight 179.9 KDa was expressed in Sf9 insect cells and contains an N-terminal FLAG tag. The enzyme was obtained from Active Motif (Catalog No. 31432). The tri-methylated histone substrate peptide of purity greater than 95% was a synthetic peptide in which the first 21 amino acids correspond to the human histone H3 sequence with three extra amino acids and a biotin motif (GGK-biotin) linked to the C-terminus [sequence: ART-K(Me3)-QTARKSTGGKAPRKQLA-GGK-biotin-OH], (AnaSpec, Fremont, Calif. Catalog. No. ANA-1413). The reference inhibitor compound tranylcypromine (or trans-2-phenylcyclopropylamine hydrochloride, also known as, 2-PCPA) was purchased from Sigma (St. Louis, Mo. Cat. no. P8511). ULight-labeled streptavidin (ULight-SA, Catalog no. TRF0102), Eu-W1024-labeled anti-methyl-Histone H3 Lysine 4 (H3K4me1-2) Antibody (Catalog no. TRF0402), and LANCE detection buffer 10× (Catalog no. CR97-100) were obtained from PerkinElmer (Montreal, Quebec, Canada). The TR-FRET experiments were carried out in white, low-volume 384-wellplates purchased from PerkinElmer (ProxiPlate_-384 Plus, Catalog no. 6008280).
The TR-FRET signal was measured in the presence both of the bio-H3K4me3 peptide and FLAG-JARID1B by detecting any H3K4me2/1 peptide produced in the assay system. Assays using only the bio-H3K4me2 peptide were served as a positive control. Robust enzymatic progressions were observed by using JARID1B at concentrations ranging from 10 to 30 nM. In a typical TR-FRET experiment, JARID1B was pre-incubated with or without 0.1 uM of test-compounds (containing 1% DMSO final) for 5 min. The enzymatic reactions were initiated by the addition of 500 nM biotinylated H3K4me3 peptide substrate plus 500 uM of 2-OG 25 uM Fe(II) and 2 mM ascorbate. The reaction buffer also contained 50 mM Hepes (pH7.5), 0.01% (v/v) Tween 20, and 50 mM NaCl. The reaction mixture was incubated for 30 min at room temperature before reading on an EnVision plate reader (PerkinElmer, Waltham, Mass.).

T1 sequence (Q9UGL1 whole entry): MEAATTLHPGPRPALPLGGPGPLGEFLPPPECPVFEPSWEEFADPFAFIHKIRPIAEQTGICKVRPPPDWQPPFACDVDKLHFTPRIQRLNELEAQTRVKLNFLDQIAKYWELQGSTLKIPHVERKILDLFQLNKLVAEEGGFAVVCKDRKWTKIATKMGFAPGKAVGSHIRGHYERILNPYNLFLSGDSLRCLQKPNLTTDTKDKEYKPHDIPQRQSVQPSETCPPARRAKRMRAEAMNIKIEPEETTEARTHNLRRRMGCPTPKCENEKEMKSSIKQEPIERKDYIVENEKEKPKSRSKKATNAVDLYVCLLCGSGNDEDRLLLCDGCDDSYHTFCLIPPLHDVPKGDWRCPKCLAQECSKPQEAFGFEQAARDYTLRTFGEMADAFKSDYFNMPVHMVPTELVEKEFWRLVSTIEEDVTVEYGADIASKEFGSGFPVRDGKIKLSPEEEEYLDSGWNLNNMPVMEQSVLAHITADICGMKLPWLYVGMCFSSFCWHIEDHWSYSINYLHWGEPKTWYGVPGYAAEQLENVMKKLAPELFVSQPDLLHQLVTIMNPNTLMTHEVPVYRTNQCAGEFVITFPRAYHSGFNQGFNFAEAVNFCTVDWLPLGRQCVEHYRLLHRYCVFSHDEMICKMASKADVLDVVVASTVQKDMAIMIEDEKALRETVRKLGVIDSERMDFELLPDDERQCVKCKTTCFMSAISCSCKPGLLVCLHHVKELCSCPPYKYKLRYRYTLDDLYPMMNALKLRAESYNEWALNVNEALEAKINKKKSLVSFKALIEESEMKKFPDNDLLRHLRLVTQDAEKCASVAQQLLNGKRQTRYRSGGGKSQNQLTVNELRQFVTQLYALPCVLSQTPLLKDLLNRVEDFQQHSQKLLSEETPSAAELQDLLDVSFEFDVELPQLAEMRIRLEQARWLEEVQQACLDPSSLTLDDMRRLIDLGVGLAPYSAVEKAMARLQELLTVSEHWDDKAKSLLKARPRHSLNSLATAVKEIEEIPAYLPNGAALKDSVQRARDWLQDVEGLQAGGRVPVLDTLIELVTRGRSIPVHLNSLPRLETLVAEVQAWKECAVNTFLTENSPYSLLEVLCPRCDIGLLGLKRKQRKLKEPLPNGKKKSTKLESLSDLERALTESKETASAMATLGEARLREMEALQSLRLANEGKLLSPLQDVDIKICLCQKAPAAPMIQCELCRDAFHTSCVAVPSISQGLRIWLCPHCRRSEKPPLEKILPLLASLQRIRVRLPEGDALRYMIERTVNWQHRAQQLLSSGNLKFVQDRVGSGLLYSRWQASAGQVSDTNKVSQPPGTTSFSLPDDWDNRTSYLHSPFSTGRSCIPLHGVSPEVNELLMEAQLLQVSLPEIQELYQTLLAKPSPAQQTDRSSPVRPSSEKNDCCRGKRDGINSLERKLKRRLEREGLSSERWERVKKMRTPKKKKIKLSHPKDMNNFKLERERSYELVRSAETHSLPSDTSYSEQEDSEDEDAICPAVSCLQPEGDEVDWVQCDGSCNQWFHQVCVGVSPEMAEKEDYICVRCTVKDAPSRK

| Structure (SMILES) | inhibition at 0.1 µM [%] |
| --- | --- |
| CN1CCN(Cc2cccc(-c3cnn(-c4nccc5c(=O)[nH]cnc45)c3)c2)CC1 [Compound 6, 8-(4-(3-((4-methylpiperazin-1-yl)methyl)phenyl)-1H-pyrazol-1-yl)pyrido[3,4-d]pyrimidin-4(3H)-one] | < 20 |
| CCOC(=O)c1nc(-c2nccc3c(=O)[nH]cnc23)cs1 [Compound 62, ethyl 4-(4-oxo-3,4-dihydropyrido[3,4-d]pyrimidin-8-yl)thiazole-2-carboxylate] | < 20 |
| O=c1[nH]c(COc2ccc(F)c(Cl)c2)nc2c(-c3ccc(N4CCOCC4)nc3)nccc12 [Compound 78, 2-((3-chloro-4-fluorophenoxy)methyl)-8-(6-morpholinopyridin-3-yl)pyrido[3,4-d]pyrimidin-4(3H)-one] | < 20 |
| Nc1nn(-c2nccc3c(=O)[nH]cnc23)cc1-c1cnn(C2CCCC2)c1 [Compound 35, 8-(3-amino-1′-cyclopentyl-1H,1′H-[4,4′-bipyrazol]-1-yl)pyrido[3,4-d]pyrimidin-4(3H)-one] | 20 to 50 |
| O=c1[nH]c(COc2ccc(F)c(Cl)c2)nc2c(-c3csc(NCC(O)c4ccncc4)n3)nccc12 (centres unmarked) [Compound 111, 2-((3-chloro-4-fluorophenoxy)methyl)-8-(2-((2-hydroxy-2-(pyridin-4-yl)ethyl)amino)thiazol-4-yl)pyrido[3,4-d]pyrimidin-4(3H)-one] | 20 to 50 |
| CC(=O)c1ccc(-c2cn(-c3nccc4c(=O)[nH]cnc34)nc2N)cc1 [Compound 24, 8-(4-(4-acetylphenyl)-3-amino-1H-pyrazol-1-yl)pyrido[3,4-d]pyrimidin-4(3H)-one] | ≥ 50 |
| O=c1[nH]c(COc2ccc(F)c(Cl)c2)nc2c(-c3nccs3)nccc12 [Compound 74, 2-((3-chloro-4-fluorophenoxy)methyl)-8-(thiazol-2-yl)pyrido[3,4-d]pyrimidin-4(3H)-one] | 20 to 50 |
| O=c1[nH]c(COc2ccc(C3CCCC3)cc2)nc2c(-c3csc(NCCO)n3)nccc12 [Compound 159, 2-((4-cyclopentylphenoxy)methyl)-8-(2-((2-hydroxyethyl)amino)thiazol-4-yl)pyrido[3,4-d]pyrimidin-4(3H)-one] | < 20 |
| Cc1nc2c(-c3csc(NCCO)n3)nccc2c(=O)[nH]1 [Compound 137, 8-(2-((2-hydroxyethyl)amino)thiazol-4-yl)-2-methylpyrido [3,4-d]pyrimidin-4(3H)-one] | < 20 |
| CN1CCN(CCNc2nc(-c3nccc4c(=O)[nH]c(COc5ccc(F)c(Cl)c5)nc34)cs2)CC1 [Compound 89, 2-((3-chloro-4-fluorophenoxy)methyl)-8-(2-((2-(4-methylpiperazin-1-yl)ethyl)amino)thiazol-4-yl)pyrido[3,4-d]pyrimidin-4(3H)-one] | ≥ 50 |
| C[C@H](O)CNc1nc(-c2nccc3c(=O)[nH]cnc23)cs1 [Compound 39, (S)-8-(2-((2-hydroxypropyl)amino)thiazol-4-yl)pyrido[3,4-d]pyrimidin-4(3H)-one] | ≥ 50 |
| O=c1[nH]cnc2c(-n3cc(-c4ccc(F)cc4)cn3)nccc12 [Compound 4, 8-(4-(4-fluorophenyl)-1H-pyrazol-1-yl)pyrido[3,4-d]pyrimidin-4(3H)-one] | < 20 |
| O=c1[nH]c(COc2ccc(F)c(Cl)c2)nc2c(-c3cnccn3)nccc12 [Compound 79, 2-((3-chloro-4-fluorophenoxy)methyl)-8-(pyrazin-2-yl)pyrido[3,4-d]pyrimidin-4(3H)-one] | 20 to 50 |
| COCCNc1nc(-c2nccc3c(=O)[nH]cnc23)cs1 [Compound 42, 8-(2-((2-methoxyethyl)amino)thiazol-4-yl)pyrido[3,4-d]pyrimidin-4(3H)-one] | ≥ 50 |
| Nc1nn(-c2nccc3c(=O)[nH]cnc23)cc1-c1ccc(F)cc1 [Compound 23, 8-(3-amino-4-(4-fluorophenyl)-1H-pyrazol-1-yl)pyrido[3,4-d]pyrimidin-4(3H)-one] | ≥ 50 |
| O=c1[nH]cnc2c(-c3csc(NCC4CCCO4)n3)nccc12 (centres unmarked) [Compound 41, 8-(2-(((tetrahydrofuran-2-yl)methyl)amino)thiazol-4-yl)pyrido[3,4-d]pyrimidin-4(3H)-one] | ≥ 50 |
| CN1CCCC1CCNc1nc(-c2nccc3c(=O)[nH]c(COc4ccc(F)c(Cl)c4)nc23)cs1 (centres unmarked) [Compound 92, 2-((3-chloro-4-fluorophenoxy)methyl)-8-(2-((2-(1-methylpyrrolidin-2-yl)ethyl)amino)thiazol-4-yl)pyrido[3,4-d]pyrimidin-4(3H)-one] | ≥ 50 |
| O=c1[nH]cnc2c(-c3csc(NCC4CCNCC4)n3)nccc12 [Compound 56, 8-(2-((piperidin-4-ylmethyl)amino)thiazol-4-yl)pyrido[3,4-d]pyrimidin-4(3H)-one] | ≥ 50 |

More lines, now with the values ahead:

| inhibition at 0.1 µM [%] | Structure (SMILES) |
| --- | --- |
| < 20 | Cc1nc(-c2nccc3c(=O)[nH]c(COc4ccc(F)c(Cl)c4)nc23)cs1 [Compound 103, 2-((3-chloro-4-fluorophenoxy)methyl)-8-(2-methylthiazol-4-yl)pyrido[3,4-d]pyrimidin-4(3H)-one] |
| < 20 | CCN(CC)c1nc(-c2nccc3c(=O)[nH]c(COc4ccc(F)c(Cl)c4)nc23)cs1 [Compound 105, 2-((3-chloro-4-fluorophenoxy)methyl)-8-(2-(diethylamino)thiazol-4-yl)pyrido[3,4-d]pyrimidin-4(3H)-one] |
| 20 to 50 | O=C(c1ccccc1)c1ccc(OCc2nc3c(-c4csc(NCCO)n4)nccc3c(=O)[nH]2)cc1 [Compound 160, 2-((4-benzoylphenoxy)methyl)-8-(2-((2-hydroxyethyl)amino)thiazol-4-yl)pyrido[3,4-d]pyrimidin-4(3H)-one] |
| < 20 | CC(CNc1nc(-c2nccc3c(=O)[nH]c(COc4ccc(F)c(Cl)c4)nc23)cs1)Oc1ccccc1 (centres unmarked) [Compound 123, 2-((3-chloro-4-fluorophenoxy)methyl)-8-(2-((2-phenoxypropyl)amino)thiazol-4-yl)pyrido[3,4-d]pyrimidin-4(3H)-one] |
| ≥ 50 | O=c1[nH]c(COc2ccc(Cl)c(Cl)c2)nc2c(-c3csc(NCCO)n3)nccc12 [Compound 136, 2-((3,4-dichlorophenoxy)methyl)-8-(2-((2-hydroxyethyl)amino)thiazol-4-yl)pyrido[3,4-d]pyrimidin-4(3H)-one] |
| < 20 | COCCNc1nc(-c2nccc3c(=O)[nH]c(COCc4ccccc4)nc23)cs1 [Compound 146, 2-((benzyloxy)methyl)-8-(2-((2-methoxyethyl)amino)thiazol-4-yl)pyrido[3,4-d]pyrimidin-4(3H)-one] |
| ≥ 50 | CN(C)CCNc1nc(-c2nccc3c(=O)[nH]c(COc4ccc(F)cc4)nc23)cs1 [Compound 126, 8-(2-((2-(dimethylamino)ethyl)amino)thiazol-4-yl)-2-((4-fluorophenoxy)methyl) pyrido[3,4-d]pyrimidin-4(3H)-one] |
| 20 to 50 | Nc1nc(-c2nccc3c(=O)[nH]c(CCCc4ccccc4)nc23)cs1 [Compound 166, 8-(2-aminothiazol-4-yl)-2-(3-phenylpropyl)pyrido[3,4-d]pyrimidin-4(3H)-one] |
| < 20 | O=c1[nH]c(COCc2ccccc2)nc2c(-c3csc(NCCCO)n3)nccc12 [Compound 147, 2-((benzyloxy)methyl)-8-(2-((3-hydroxypropyl)amino)thiazol-4-yl)pyrido[3,4-d]pyrimidin-4(3H)-one] |
| 20 to 50 | CN(C)CCNc1nc(-c2nccc3c(=O)[nH]c(Cc4ccccc4)nc23)cs1 [Compound 140, 2-benzyl-8-(2-((2-(dimethylamino)ethyl)amino)thiazol-4-yl)pyrido[3,4-d]pyrimidin-4(3H)-one] |
| 20 to 50 | NCCNc1nc(-c2nccc3c(=O)[nH]c(COCc4ccccc4)nc23)cs1 [Compound 149, 8-(2-((2-aminoethyl)amino)thiazol-4-yl)-2-((benzyloxy)methyl)pyrido [3,4-d]pyrimidin-4(3H)-one] |
